Source: US12383545B1, “Treatment of migraine” (priority 2018, dated 2025)
“And” between values parts separate entries of the source, which are not always exact repeats. Identical values can stand only once.

Tested on: participants with episodic migraine
Test: Study A: phase 3 randomized double-blind placebo-controlled 12-week trial, eDiary efficacy (monthly migraine days, headache days, acute medication use days, responder rates)
Type: in vivo, human
Conditions: for Change from baseline in mean monthly acute medication use days, LS mean change (SE) / Change from baseline in mean monthly headache days, LS mean change (SE) / Change from baseline in mean monthly migraine days, LS mean change (SE) / Mean monthly acute medication use days, LSMD vs. placebo (95% CI) / Mean monthly headache days, LSMD vs. placebo (95% CI) / Mean monthly migraine days, LSMD vs. placebo (95% CI): across 12-week treatment period; for Change from baseline in mean monthly acute medication use days, LS mean change (SE) / Change from baseline in mean monthly headache days, LS mean change (SE) / Change from baseline in mean monthly migraine days, LS mean change (SE) / Mean monthly acute medication use days, LSMD vs. placebo (95% CI) / Mean monthly headache days, LSMD vs. placebo (95% CI) / Mean monthly migraine days, LSMD vs. placebo (95% CI) / ≥50% reduction in 3-month average of monthly migraine days, odds ratio vs. placebo (95% CI) / ≥50% reduction in 3-month average of monthly migraine days, responder n (%): mITT; for decrease in mean monthly headache days / decrease in monthly migraine days: 12 weeks; for decrease in mean monthly headache days / decrease in monthly migraine days / decrease in mean monthly acute medication use days: given as decrease; for decrease in mean monthly acute medication use days: across 12 weeks; for proportion of participants who reported a migraine day: first full day after study drug administration; for LS mean change from baseline in mean headache days / LS mean reduction from baseline in mean cumulative headache hours: first treatment period; for LS mean change from baseline in acute medication use days / LS mean change from baseline in moderate/severe headache days: first treatment period (weeks 1-4); for Mean change from baseline in weekly migraine days: first week of treatment; for odds ratio vs placebo for reporting a migraine: post dose day 1
Procedure: Study A: A phase 3, multicenter, randomized, double-blind, placebo-controlled, parallel-group study was conducted to evaluate the efficacy, safety, and tolerability of oral atogepant for the prevention of migraine in participants with episodic migraine (EM).
This study comprised a 4-week screening and baseline period, a 12-week double-blind treatment period, and a 4-week follow-up period. The total study duration was 20 weeks.
Adults 18 to 80 years of age with 4 to 14 migraine days per month in the 3 months prior to visit 1, and 4 to 14 migraine days during the 28-day baseline period per electronic Diary, were allowed to enroll. Inclusion criteria included at least a 1-year history of migraine with or without aura consistent with a diagnosis, diagnosed as specified in the International Classification of Headache Disorders, 3rd edition, version (ICHD-3), and the age of the participant at the time of migraine onset was <50 years. Exclusion criteria included a history of migraine accompanied by diplopia or decreased level of consciousness or retinal migraine; a current diagnosis of chronic migraine, new persistent daily headache, trigeminal autonomic cephalgia (e.g., cluster headache), or painful cranial neuropathy as defined by ICHD-3, or if they averaged 15 or more migraine days per month across the 3 months prior to Visit 1 or during the 28-day baseline period; a history of an inadequate response to >4 medications (2 of which have different mechanisms of action) prescribed for the treatment of migraine; and participants with clinically significant hematologic, endocrine, cardiovascular, pulmonary, renal, hepatic, gastrointestinal, or neurologic disease. Use of opioids or barbiturate on more than 2 days per month, triptans or ergots on 10 or more days per month, or simple analgesics (e.g., aspirin, non-steroidal anti-inflammatory drugs, acetaminophen) on 15 or more days per month in the 3 months prior to Visit 1 or during the 28-day baseline period were also excluded. Use of barbiturates was also excluded 30 days prior to screening and throughout the duration of the trial.
Randomization was stratified based on prior exposure (yes/no) to a migraine prevention medication with proven efficacy, such as antiepileptics, tricyclic antidepressants, beta-blockers, calcium channel blocker, angiotensin receptor blocker or converting enzyme inhibitor, or serotonin-norepinephrine reuptake inhibitors. Approximately 70% of randomized participants took at least one prior migraine prevention medication with proven efficacy. Participants were not on concurrent medication during the study.
A total of 910 patients were randomized 1:1:1:1 to one of the four treatment groups (10 mg QD, 30 mg QD, 60 mg QD, or placebo). Efficacy analyses were based on the Modified Intent-to-Treat Population (mITT) of 873 patients.
All participants were instructed to take trial treatment orally at approximately the same time once daily for 12 weeks. To maintain the blinding, all participants took 3 tablets of trial treatment provided in identical blister cards: placebo (placebo 10 mg/placebo 30 mg/placebo 60 mg), atogepant 10 mg (atogepant 10 mg/placebo 30 mg/placebo 60 mg), atogepant 30 mg (placebo 10 mg, atogepant 30 mg, placebo 60 mg), and atogepant 60 mg (placebo 10 mg/placebo 30 mg/atogepant 60 mg). Participants, site personnel, and trial sponsor personnel were blinded to the treatment assignment. Tablet formulations for CGRP compounds are described, for example, in U.S. Pat. No. 10,117,936.
Participants were allowed to take acute treatments for migraine which included triptans, ergot derivatives, opioids, acetaminophen, non-steroidal anti-inflammatory drugs, and antiemetic agents. Participants were not allowed to take any preventive treatments for migraine 30 days prior to visit 1 and throughout the trial.
Efficacy assessments were recorded by the participant in an electronic diary at home or via eTablet at the trial site during clinic visits. […]

[1] = range across atogepant 10, 30, 60 mg groups

C[C@@H]1[C@H](c2c(F)ccc(F)c2F)C[C@H](NC(=O)c2cnc3c(c2)C[C@@]2(C3)C(=O)Nc3ncccc32)C(=O)N1CC(F)(F)F [atogepant]
100% reduction in 3-month average of monthly migraine days, responder n (%) (10 mg QD): 17 (7.9) %
≥25% reduction in 3-month average of monthly migraine days, responder n (%) (10 mg QD): 73.4%
≥75 reduction in 3-month average of monthly migraine days, responder n (%) (10 mg QD): 30.4%
Change from baseline in mean monthly acute medication use days, LS mean change (SE) (10 mg QD): -3.66 days
Change from baseline in mean monthly headache days, LS mean change (SE) (10 mg QD): -3.94 days
Change from baseline in mean monthly migraine days, LS mean change (SE) (10 mg QD): -3.69 days
Mean monthly acute medication use days, LSMD vs. placebo (95% CI) (10 mg QD): -1.31 days
Mean monthly headache days, LSMD vs. placebo (95% CI) (10 mg QD): -1.42 days
Mean monthly migraine days, LSMD vs. placebo (95% CI) (10 mg QD): -1.21 days
≥50% reduction in 3-month average of monthly migraine days, odds ratio vs. placebo (95% CI) (10 mg QD): 3.06
≥50% reduction in 3-month average of monthly migraine days, responder n (%) (10 mg QD): 55.6%
≥50% reduction in 3-month average of monthly migraine days, responder n (%) (10 mg QD, listed as Atogepant): (55.6) %
decrease in mean monthly headache days (10 mg): 3.94 days
decrease in monthly migraine days (10 mg): 3.69 days
decrease in mean monthly acute medication use days (10 mg): 3.66 days
proportion of participants who reported a migraine day (10 mg): 14.1%
LS mean change from baseline in mean headache days (10 mg): −3.2
LS mean reduction from baseline in mean cumulative headache hours (10 mg): -23.3 h
LS mean change from baseline in acute medication use days (10 mg): −3.3
LS mean change from baseline in moderate/severe headache days (10 mg): −3.0
Mean change from baseline in weekly migraine days (10 mg): −0.77
odds ratio vs placebo for reporting a migraine (10 mg): 0.49
mean change from baseline in mean monthly migraine days (10 mg, weeks 1-4): −3.1
mean change from baseline in mean monthly migraine days (10 mg, weeks 5-8): −3.7
mean change from baseline in mean monthly migraine days (10 mg, weeks 9-12): −4.2
100% reduction in 3-month average of monthly migraine days, responder n (%) (30 mg QD): 11 (4.0) %
≥25% reduction in 3-month average of monthly migraine days, responder n (%) (30 mg QD): 172 (77.1) %
≥75 reduction in 3-month average of monthly migraine days, responder n (%) (30 mg QD): 66 (29.6) %
Change from baseline in mean monthly acute medication use days, LS mean change (SE) (30 mg QD): -3.68 days
Change from baseline in mean monthly headache days, LS mean change (SE) (30 mg QD): -4.04 days
Change from baseline in mean monthly migraine days, LS mean change (SE) (30 mg QD): -3.86 days
Mean monthly acute medication use days, LSMD vs. placebo (95% CI) (30 mg QD): -1.33 days
Mean monthly headache days, LSMD vs. placebo (95% CI) (30 mg QD): -1.53 days
Mean monthly migraine days, LSMD vs. placebo (95% CI) (30 mg QD): -1.38 days
≥50% reduction in 3-month average of monthly migraine days, odds ratio vs. placebo (95% CI) (30 mg QD): 3.53
≥50% reduction in 3-month average of monthly migraine days, responder n (%) (30 mg QD): 58.7%
≥50% reduction in 3-month average of monthly migraine days, responder n (%) (30 mg QD, listed as Atogepant): (58.7) %
decrease in mean monthly headache days (30 mg): 4.04 days
decrease in monthly migraine days (30 mg): 3.86 days
decrease in mean monthly acute medication use days (30 mg): 3.68 days
proportion of participants who reported a migraine day (30 mg): 10.8%
LS mean change from baseline in mean headache days (30 mg): −3.4
LS mean reduction from baseline in mean cumulative headache hours (30 mg): -23.6 h
LS mean change from baseline in acute medication use days (30 mg): −3.4
LS mean change from baseline in moderate/severe headache days (30 mg): −3.2
Mean change from baseline in weekly migraine days (30 mg): −0.94
odds ratio vs placebo for reporting a migraine (30 mg): 0.33
mean change from baseline in mean monthly migraine days (30 mg, weeks 1-4): −3.4
mean change from baseline in mean monthly migraine days (30 mg, weeks 5-8): −3.9
mean change from baseline in mean monthly migraine days (30 mg, weeks 9-12): −4.3
100% reduction in 3-month average of monthly migraine days, responder n (%) (60 mg QD): 17 (7.7) %
≥25% reduction in 3-month average of monthly migraine days, responder n (%) (60 mg QD): 180 (81.1) %
≥75 reduction in 3-month average of monthly migraine days, responder n (%) (60 mg QD): 84 (37.8) %
Change from baseline in mean monthly acute medication use days, LS mean change (SE) (60 mg QD): -3.85 days
Change from baseline in mean monthly headache days, LS mean change (SE) (60 mg QD): -4.23 days
Change from baseline in mean monthly migraine days, LS mean change (SE) (60 mg QD): -4.20 days
Mean monthly acute medication use days, LSMD vs. placebo (95% CI) (60 mg QD): -1.50 days
Mean monthly headache days, LSMD vs. placebo (95% CI) (60 mg QD): -1.71 days
Mean monthly migraine days, LSMD vs. placebo (95% CI) (60 mg QD): -1.72 days
≥50% reduction in 3-month average of monthly migraine days, odds ratio vs. placebo (95% CI) (60 mg QD): 3.82
≥50% reduction in 3-month average of monthly migraine days, responder n (%) (60 mg QD): 60.8%
≥50% reduction in 3-month average of monthly migraine days, responder n (%) (60 mg QD, listed as Atogepant): (60.8) %
decrease in mean monthly headache days (60 mg): 4.23 days
decrease in monthly migraine days (60 mg): 4.20 days
decrease in mean monthly acute medication use days (60 mg): 3.85 days
proportion of participants who reported a migraine day (60 mg): 12.3%
LS mean change from baseline in mean headache days (60 mg): −3.8
LS mean reduction from baseline in mean cumulative headache hours (60 mg): -25.1 h
LS mean change from baseline in acute medication use days (60 mg): −3.7
LS mean change from baseline in moderate/severe headache days (60 mg): −3.8
Mean change from baseline in weekly migraine days (60 mg): −1.03
odds ratio vs placebo for reporting a migraine (60 mg): 0.39
mean change from baseline in mean monthly migraine days (60 mg, weeks 1-4): −3.9
mean change from baseline in mean monthly migraine days (60 mg, weeks 5-8): −4.2
mean change from baseline in mean monthly migraine days (60 mg, weeks 9-12): −4.4
times more likely than placebo to achieve ≥50% reduction in the 12-week average of MMDs (atogepant treated participants (all doses)): ≥ 3 times
participants with 100% reduction in MMDs across 12 weeks [1]: 5%-8%
participants with ≥25% reduction in MMDs across 12 weeks [1]: 73%-81%
participants with ≥50% reduction in mean MMDs across 12 weeks [1]: 56%-61% and 56-61%
participants with ≥75% reduction in MMDs across 12 weeks [1]: 30%-38%
